Results taken from paper PMC12165799, “Antimicrobial peptide developed with machine learning sequence optimization targets drug resistant Staphylococcus aureus in mice” (The Journal of Clinical Investigation, 2025).
Like-named read-outs stand apart in the source and are kept apart here.

Assays:
[1] = test system: S. aureus MW2 infected skin; test: Histopathology of skin (H&E, Gram stain), prophylactic model; type: in vivo, mice; details: 2% w/w formulation, H&E and Gram stains
Source text: 235 Supplemental Figure 13. Histopathology of vehicle and CIT-8 treated skin in the skin-abraded
236 prophylactic murine model infected with S. aureus MW2.
237 Panel A: Representative 10× images of H&E-stained murine skin sections from all n=32 animals
238 (n=8 per group). Scale bars: 0.05 mm. Panel B: Representative 40× images of Gram-stained murine
239 skin sections. Scale bars: 0.01 mm. White arrows (1-5) indicate key histopathological features; 1:
240 Disorganized epidermal layer with epidermal disruption; 2: Dense infiltration of
241 polymorphonuclear (PMN) and mononuclear (MN) cells in both the epidermis and dermis,
242 indicative of heightened inflammation; 3: More intact epidermis; 4: Reduced numbers of PMN
243 and MN cells; 5: Bacterial patches.
(1 picture or pasted object on this page, not shown here)

[2] = test system: S. aureus MW2 skin infection; test: Skin-abraded murine infection, established infection model, bacterial load; type: in vivo, mice; parameters: Bacterial load from skin specimens, established infection model / bacterial load in skin, Sup. Fig. 12: unit not given here; details: for Reduction of S. aureus MW2 vs vehicle, established infection model: single dose 24 hours after inoculation, n = 8; for bacterial load in skin, Sup. Fig. 12: mice
Method: 599 In vivo murine skin infection and treatment
600 We used a topical skin-abraded murine infection model with minor modifications to test
601 the in vivo efficacy of the CIT-8 peptide (25). We performed all mouse studies following the
602 protocol approved by the Institutional Animal Care and Use Committee. In brief, we anesthetized
603 female C57BL/6 mice (6 weeks) (Jackson Laboratory, Bar Harbor, ME, USA) with ketamine-
604 xylazine (90 mg/kg ketamine and 10 mg/kg xylazine) via intraperitoneal injection. We shaved the
605 dorsal side of the mice in the middle of the back (area=2 cm2). To disrupt skin integrity, we tape-
606 stripped with Tensoplast® seven times in succession, replacing the tape each time, resulting in
607 visibly damaged skin. We infected the damaged skin area with 1 × 10^7 CFU of S. aureus MW2
608 (exponential phase bacteria in PBS) with an inoculum of 50 µl using a pipette tip. Ten minutes
609 (prophylactic model) and 24 h (established model) after bacterial inoculation, we applied 30 mg
610 of 1 and 2% (w/w) CIT-8 ointment in a white petroleum jelly base (Cat no. 19-090-843, Fisher
611 Scientific, MA, USA) to the skin. We also included animal groups treated with only petroleum
612 jelly or with 2% commercial mupirocin ointment as negative and positive controls, respectively.
613 For pain management, we used the analgesic buprenorphine SR (0.05 mg/kg).
614 After 24 h of treatment, we euthanized the animals, separated the skin from the underlying
615 fascia and muscle tissue, and excised about 2 cm2 of skin from the infected area. We ground the
616 skin in 1ml of PBS buffer (Gibco, MD, USA). We serially diluted 100 µl of the solution in PBS
617 and plated it on Remel™ TSA plates (Fisher, MA, USA) to estimate viable colony counts after 18
618 h of incubation at 37 °C. Further, we added 10 µl of EDTA-Free, protease inhibitor cocktail Set III
619 (Millipore Sigma, MA, USA) to 500 µl of the ground skin PBS solution for cytokine estimation.
620 The Cytokine Core, LLC (Indianapolis, IN, USA) performed the cytokine concentration analysis

[3] = test system: S. aureus JE2 and transposon mutants; type: cell-based, Staphylococcus aureus
Method: 305 Minimal inhibitory concentration (MIC) assay
We made serial dilutions of 10×
We determined the MIC using OD600
Accordingly, we added 150 mM NaCl,
319 established protocol (5).
542 Use of S. aureus transposon mutants
543 We used S. aureus transposon mutants from the Nebraska Transposon Mutant Library
544 (NTML)(21). The library has a collection of 1,952 strains, each containing a single mutation within
545 a nonessential gene of USA300, an epidemic community-associated MRSA (CA-MRSA) isolate
546 (21). We selected a transposon insertion mutant from the NTML library in the fmtc gene, which
547 catalyzes the transfer of a lysyl group from L-lysyl-tRNA to membrane-bound
548 phosphatidylglycerol (PG) to produce lysylphosphatidylglycerol (LPG) (11). LPG imparts a less-
549 negative charge to the overall membrane potential and thus contributes to bacterial virulence by
550 contributing a resistance mechanism against cationic AMPs (11).

H-GLFKVIKKLLKVI-NH2 [CIT-8]
Histopathology of treated skin [1]: more intact epidermis, reduced numbers of PMN and MN (less inflammation), and no bacterial biofilm patches | Bacterial load from skin specimens, established infection model ([2]; 1% ointment 24 hours after infection, animal 1): 573476702 | Bacterial load from skin specimens, established infection model ([2]; 1% ointment 24 hours after infection, animal 2): 722891566 | Bacterial load from skin specimens, established infection model ([2]; 1% ointment 24 hours after infection, animal 3): 990099010 | Bacterial load from skin specimens, established infection model ([2]; 1% ointment 24 hours after infection, animal 4): 73752712 | Bacterial load from skin specimens, established infection model ([2]; 1% ointment 24 hours after infection, animal 5): 440528634 | Bacterial load from skin specimens, established infection model ([2]; 1% ointment 24 hours after infection, animal 6): 407784986 | Bacterial load from skin specimens, established infection model ([2]; 1% ointment 24 hours after infection, animal 7): 586080586 | Bacterial load from skin specimens, established infection model ([2]; 1% ointment 24 hours after infection, animal 8): 58441558 | Reduction of S. aureus MW2 vs vehicle, established infection model ([2]; 1% w/w ointment): 0.85 log | bacterial load in skin, Sup. Fig. 12 ([2]; 1%, animal 1): 3454231 | bacterial load in skin, Sup. Fig. 12 ([2]; 1%, animal 2): 9594096 | bacterial load in skin, Sup. Fig. 12 ([2]; 1%, animal 3): 4268293 | bacterial load in skin, Sup. Fig. 12 ([2]; 1%, animal 4): 37383178 | bacterial load in skin, Sup. Fig. 12 ([2]; 1%, animal 5): 4592423 | bacterial load in skin, Sup. Fig. 12 ([2]; 1%, animal 6): 4992200 | bacterial load in skin, Sup. Fig. 12 ([2]; 1%, animal 7): 5211726 | bacterial load in skin, Sup. Fig. 12 ([2]; 1%, animal 8): 8092486 | Bacterial load from skin specimens, established infection model ([2]; 2% ointment 24 hours after infection, animal 1): 198248802 | Bacterial load from skin specimens, established infection model ([2]; 2% ointment 24 hours after infection, animal 2): 54495913 | Bacterial load from skin specimens, established infection model ([2]; 2% ointment 24 hours after infection, animal 3): 66006601 | Bacterial load from skin specimens, established infection model ([2]; 2% ointment 24 hours after infection, animal 4): 87431694 | Bacterial load from skin specimens, established infection model ([2]; 2% ointment 24 hours after infection, animal 5): 13757524 | Bacterial load from skin specimens, established infection model ([2]; 2% ointment 24 hours after infection, animal 6): 41237113 | Bacterial load from skin specimens, established infection model ([2]; 2% ointment 24 hours after infection, animal 7): 64923354 | Bacterial load from skin specimens, established infection model ([2]; 2% ointment 24 hours after infection, animal 8): 70546737 | Reduction of S. aureus MW2 vs vehicle, established infection model ([2]; 2% w/w ointment): 1.8 log | bacterial load in skin, Sup. Fig. 12 ([2]; 2%, animal 1): 3143418 | bacterial load in skin, Sup. Fig. 12 ([2]; 2%, animal 2): 1148325 | bacterial load in skin, Sup. Fig. 12 ([2]; 2%, animal 3): 935065 | bacterial load in skin, Sup. Fig. 12 ([2]; 2%, animal 4): 898204 | bacterial load in skin, Sup. Fig. 12 ([2]; 2%, animal 5): 917874 | bacterial load in skin, Sup. Fig. 12 ([2]; 2%, animal 6): 1020408 | bacterial load in skin, Sup. Fig. 12 ([2]; 2%, animal 7): 1787044 | bacterial load in skin, Sup. Fig. 12 ([2]; 2%, animal 8): 4694836 | Reduction in MIC against mprF transposon mutant compared with JE2 [3]: 2 fold | MIC ([3]; JE2, Supplemental Table 6): 4 µg/mL | MIC for pdx-transposon mutant versus parent strain JE2 ([3]; also with 100 μM supplemental external vitamin B6): same MIC | MIC ([3]; mprF transposon mutant (NTML)): 2 µg/mL
